# Measurements published in the kinase profiling compilation of Christmann-Franck et al. (2016).
# Assays:
# Experiment in all cases: KINOMEscan competition binding
# Details in all cases: compound 10.0 µM
# NLK (human) = NLK (human) (UniProt Q9UBE8)
# NEK3 (human) = NEK3 (human) (UniProt P51956)
# STK11 (human) = STK11 (human) (UniProt Q15831)
# BRSK1 (human) = BRSK1 (human) (UniProt Q8TDC3)
# RPS6KA2 KD2 (human) = RPS6KA2 KD2 (human) (UniProt Q15349)
# PIM2 (human) = PIM2 (human) (UniProt Q9P1W9)
# DYRK2 (human) = DYRK2 (human) (UniProt Q92630)
# CSNK1G2 (human) = CSNK1G2 (human) (UniProt P78368)
# [1] = target: JAK3 JH1 catalytic (human) (UniProt P52333)
# STK17A (human) = STK17A (human) (UniProt Q9UEE5)
# RIPK4 (human) = RIPK4 (human) (UniProt P57078)
# RPS6KA6 KD2 (human) = RPS6KA6 KD2 (human) (UniProt Q9UK32)
# TAOK3 (human) = TAOK3 (human) (UniProt Q9H2K8)
# CSNK1E (human) = CSNK1E (human) (UniProt P49674)
# EPHA1 (human) = EPHA1 (human) (UniProt P21709)
# PDGFRB (human) = PDGFRB (human) (UniProt P09619)
# ADCK4 (human) = ADCK4 (human) (UniProt Q96D53)
# ZAP70 (human) = ZAP70 (human) (UniProt P43403)
# CDKL1 (human) = CDKL1 (human) (UniProt Q00532)
# NEK2 (human) = NEK2 (human) (UniProt P51955)
# SBK1 (human) = SBK1 (human) (UniProt Q52WX2)
# CRK2 (P.falciparum) = CRK2 (P.falciparum) (UniProt P61075)
# SRPK3 (human) = SRPK3 (human) (UniProt Q9UPE1)
# IRAK4 (human) = IRAK4 (human) (UniProt Q9NWZ3)
# MAP3K9 (human) = MAP3K9 (human) (UniProt P80192)
# ULK2 (human) = ULK2 (human) (UniProt Q8IYT8)
# BRAF (human) = BRAF (human) (UniProt P15056)
# AKT2 (human) = AKT2 (human) (UniProt P31751)
# PIK3CG (human) = PIK3CG (human) (UniProt P48736)
# EPHB1 (human) = EPHB1 (human) (UniProt P54762)
# EPHA7 (human) = EPHA7 (human) (UniProt Q15375)
# PRKG1 (human) = PRKG1 (human) (UniProt Q13976)
# CDK8 (human) = CDK8 (human) (UniProt P49336)
# PIK3CA (human) = PIK3CA (human) (UniProt P42336)
# PIP5K1C (human) = PIP5K1C (human) (UniProt O60331)
# RET (human) = RET (human) (UniProt P07949)
# MATK (human) = MATK (human) (UniProt P42679)
# TESK1 (human) = TESK1 (human) (UniProt Q15569)
# SIK1 (human) = SIK1 (human) (UniProt P57059)
# CAMK2A (human) = CAMK2A (human) (UniProt Q9UQM7)
# BRSK1 (human), sequence (Q8TDC3 whole entry, looked up): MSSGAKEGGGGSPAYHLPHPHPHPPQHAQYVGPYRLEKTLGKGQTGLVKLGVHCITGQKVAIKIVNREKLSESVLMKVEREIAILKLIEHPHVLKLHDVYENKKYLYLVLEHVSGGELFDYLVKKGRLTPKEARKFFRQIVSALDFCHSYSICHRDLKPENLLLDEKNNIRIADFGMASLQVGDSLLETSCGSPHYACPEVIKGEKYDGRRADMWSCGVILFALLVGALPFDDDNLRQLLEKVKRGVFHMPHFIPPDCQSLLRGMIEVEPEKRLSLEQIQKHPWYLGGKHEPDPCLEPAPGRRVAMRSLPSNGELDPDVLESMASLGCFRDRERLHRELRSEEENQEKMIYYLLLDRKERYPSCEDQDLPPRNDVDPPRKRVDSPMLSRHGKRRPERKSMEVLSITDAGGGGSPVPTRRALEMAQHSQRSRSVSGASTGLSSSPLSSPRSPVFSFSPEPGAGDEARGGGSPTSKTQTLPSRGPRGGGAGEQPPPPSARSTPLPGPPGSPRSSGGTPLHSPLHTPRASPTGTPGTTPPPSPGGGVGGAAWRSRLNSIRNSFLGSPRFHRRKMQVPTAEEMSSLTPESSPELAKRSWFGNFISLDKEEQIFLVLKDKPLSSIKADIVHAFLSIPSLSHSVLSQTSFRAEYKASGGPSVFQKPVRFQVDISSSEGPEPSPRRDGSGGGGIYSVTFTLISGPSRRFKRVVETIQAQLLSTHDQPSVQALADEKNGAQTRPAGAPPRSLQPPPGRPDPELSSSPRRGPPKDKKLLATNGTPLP
# EPHA1 (human), sequence (P21709 whole entry, looked up): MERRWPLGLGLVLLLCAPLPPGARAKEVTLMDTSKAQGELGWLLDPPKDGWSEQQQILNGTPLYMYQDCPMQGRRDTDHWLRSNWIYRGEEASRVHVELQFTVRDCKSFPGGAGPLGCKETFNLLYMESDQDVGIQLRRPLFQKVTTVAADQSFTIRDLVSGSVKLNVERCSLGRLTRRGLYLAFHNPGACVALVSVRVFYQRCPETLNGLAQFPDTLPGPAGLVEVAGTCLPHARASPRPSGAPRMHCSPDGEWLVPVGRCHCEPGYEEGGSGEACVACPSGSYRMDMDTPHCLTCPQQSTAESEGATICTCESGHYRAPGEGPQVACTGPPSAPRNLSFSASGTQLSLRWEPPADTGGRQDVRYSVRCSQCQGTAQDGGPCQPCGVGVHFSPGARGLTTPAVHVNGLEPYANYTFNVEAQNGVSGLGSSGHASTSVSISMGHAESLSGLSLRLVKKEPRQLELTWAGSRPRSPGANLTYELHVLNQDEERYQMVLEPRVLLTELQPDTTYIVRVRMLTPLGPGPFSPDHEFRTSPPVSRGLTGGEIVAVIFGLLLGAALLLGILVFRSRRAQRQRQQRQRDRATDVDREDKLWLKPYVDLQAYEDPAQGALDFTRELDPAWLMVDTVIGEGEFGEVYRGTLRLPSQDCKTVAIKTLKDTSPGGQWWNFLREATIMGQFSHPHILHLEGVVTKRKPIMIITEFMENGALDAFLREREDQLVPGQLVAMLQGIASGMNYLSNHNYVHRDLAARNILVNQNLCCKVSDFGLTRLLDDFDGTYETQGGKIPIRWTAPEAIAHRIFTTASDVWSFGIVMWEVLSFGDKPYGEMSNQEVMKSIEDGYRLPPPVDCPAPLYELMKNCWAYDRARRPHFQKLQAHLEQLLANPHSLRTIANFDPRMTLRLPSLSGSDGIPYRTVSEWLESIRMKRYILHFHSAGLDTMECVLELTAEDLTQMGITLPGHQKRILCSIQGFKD
# PIK3CG (human), sequence (P48736 whole entry, looked up): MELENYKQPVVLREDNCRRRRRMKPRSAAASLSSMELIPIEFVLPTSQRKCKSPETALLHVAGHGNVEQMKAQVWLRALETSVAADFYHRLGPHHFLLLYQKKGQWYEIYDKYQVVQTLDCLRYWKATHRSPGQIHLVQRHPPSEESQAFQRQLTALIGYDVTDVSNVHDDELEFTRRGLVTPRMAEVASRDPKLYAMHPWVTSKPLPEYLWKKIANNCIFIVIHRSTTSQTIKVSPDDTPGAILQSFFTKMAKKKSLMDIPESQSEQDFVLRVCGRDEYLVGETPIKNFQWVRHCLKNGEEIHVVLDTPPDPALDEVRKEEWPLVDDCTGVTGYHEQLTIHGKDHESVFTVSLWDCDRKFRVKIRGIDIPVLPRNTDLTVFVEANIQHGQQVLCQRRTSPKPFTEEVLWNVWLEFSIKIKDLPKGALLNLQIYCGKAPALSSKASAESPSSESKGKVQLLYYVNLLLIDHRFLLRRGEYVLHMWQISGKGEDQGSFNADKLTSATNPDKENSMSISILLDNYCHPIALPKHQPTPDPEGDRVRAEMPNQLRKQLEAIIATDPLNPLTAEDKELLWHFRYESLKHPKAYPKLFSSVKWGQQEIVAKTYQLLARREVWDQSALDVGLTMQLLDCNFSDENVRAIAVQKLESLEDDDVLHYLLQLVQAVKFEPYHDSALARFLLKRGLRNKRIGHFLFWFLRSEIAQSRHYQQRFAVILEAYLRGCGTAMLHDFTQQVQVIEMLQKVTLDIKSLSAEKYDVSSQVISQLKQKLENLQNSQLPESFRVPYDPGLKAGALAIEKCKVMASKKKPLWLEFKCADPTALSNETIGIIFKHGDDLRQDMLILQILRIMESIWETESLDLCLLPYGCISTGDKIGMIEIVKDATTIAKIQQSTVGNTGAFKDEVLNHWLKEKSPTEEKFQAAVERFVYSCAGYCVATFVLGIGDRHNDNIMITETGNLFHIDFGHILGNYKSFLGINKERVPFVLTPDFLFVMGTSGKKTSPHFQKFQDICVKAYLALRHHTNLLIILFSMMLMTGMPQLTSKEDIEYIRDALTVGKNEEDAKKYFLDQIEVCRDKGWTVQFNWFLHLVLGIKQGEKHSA
# TESK1 (human), sequence (Q15569 whole entry, looked up): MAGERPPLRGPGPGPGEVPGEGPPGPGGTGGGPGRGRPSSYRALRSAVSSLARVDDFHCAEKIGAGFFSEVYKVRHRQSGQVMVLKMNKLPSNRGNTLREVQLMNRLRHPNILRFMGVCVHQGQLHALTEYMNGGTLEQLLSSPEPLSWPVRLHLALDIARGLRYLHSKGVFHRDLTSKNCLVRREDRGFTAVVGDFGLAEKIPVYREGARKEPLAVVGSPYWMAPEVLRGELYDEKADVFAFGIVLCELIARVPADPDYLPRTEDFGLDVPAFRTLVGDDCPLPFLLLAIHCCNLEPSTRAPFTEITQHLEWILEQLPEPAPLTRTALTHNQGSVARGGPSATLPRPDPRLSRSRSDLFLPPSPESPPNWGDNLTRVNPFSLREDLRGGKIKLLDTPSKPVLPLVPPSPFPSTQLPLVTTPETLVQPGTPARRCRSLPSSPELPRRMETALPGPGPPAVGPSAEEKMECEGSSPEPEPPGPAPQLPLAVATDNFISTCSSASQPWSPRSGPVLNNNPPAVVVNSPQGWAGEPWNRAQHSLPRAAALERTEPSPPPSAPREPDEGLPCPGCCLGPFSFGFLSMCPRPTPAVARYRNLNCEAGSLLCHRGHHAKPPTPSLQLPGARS
# RPS6KA6 KD2 (human), sequence (Q9UK32 whole entry, looked up): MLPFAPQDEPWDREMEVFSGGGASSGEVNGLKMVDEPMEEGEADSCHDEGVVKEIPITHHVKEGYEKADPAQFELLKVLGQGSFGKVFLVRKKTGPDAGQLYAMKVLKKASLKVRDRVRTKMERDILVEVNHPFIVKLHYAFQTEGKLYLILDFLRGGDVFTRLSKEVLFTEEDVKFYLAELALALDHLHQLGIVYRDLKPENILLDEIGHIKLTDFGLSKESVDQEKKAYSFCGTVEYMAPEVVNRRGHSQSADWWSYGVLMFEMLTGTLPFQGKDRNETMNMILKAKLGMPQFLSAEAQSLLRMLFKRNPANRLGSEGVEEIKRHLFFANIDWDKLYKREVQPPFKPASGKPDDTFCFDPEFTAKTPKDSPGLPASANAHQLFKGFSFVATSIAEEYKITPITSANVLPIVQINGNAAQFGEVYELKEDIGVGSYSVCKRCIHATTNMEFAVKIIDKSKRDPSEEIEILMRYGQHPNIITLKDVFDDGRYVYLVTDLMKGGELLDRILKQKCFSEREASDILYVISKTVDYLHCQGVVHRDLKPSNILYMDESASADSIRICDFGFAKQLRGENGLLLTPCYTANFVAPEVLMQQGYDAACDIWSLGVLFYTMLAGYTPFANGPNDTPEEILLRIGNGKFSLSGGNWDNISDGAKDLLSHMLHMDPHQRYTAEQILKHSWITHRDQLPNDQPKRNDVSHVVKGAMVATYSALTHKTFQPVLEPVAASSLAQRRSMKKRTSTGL
# STK11 (human), sequence (Q15831 whole entry, looked up): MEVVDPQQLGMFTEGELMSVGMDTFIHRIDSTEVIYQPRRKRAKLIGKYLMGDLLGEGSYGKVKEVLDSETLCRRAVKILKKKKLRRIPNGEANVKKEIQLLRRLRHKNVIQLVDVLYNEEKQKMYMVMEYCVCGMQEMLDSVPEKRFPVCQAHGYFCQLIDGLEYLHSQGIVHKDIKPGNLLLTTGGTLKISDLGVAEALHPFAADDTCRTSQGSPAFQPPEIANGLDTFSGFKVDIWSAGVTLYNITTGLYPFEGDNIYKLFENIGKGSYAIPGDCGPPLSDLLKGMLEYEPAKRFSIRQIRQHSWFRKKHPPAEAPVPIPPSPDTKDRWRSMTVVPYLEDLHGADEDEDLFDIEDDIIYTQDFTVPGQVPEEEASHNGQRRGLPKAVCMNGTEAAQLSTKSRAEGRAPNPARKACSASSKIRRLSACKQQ
# CDKL1 (human), sequence (Q00532 whole entry, looked up): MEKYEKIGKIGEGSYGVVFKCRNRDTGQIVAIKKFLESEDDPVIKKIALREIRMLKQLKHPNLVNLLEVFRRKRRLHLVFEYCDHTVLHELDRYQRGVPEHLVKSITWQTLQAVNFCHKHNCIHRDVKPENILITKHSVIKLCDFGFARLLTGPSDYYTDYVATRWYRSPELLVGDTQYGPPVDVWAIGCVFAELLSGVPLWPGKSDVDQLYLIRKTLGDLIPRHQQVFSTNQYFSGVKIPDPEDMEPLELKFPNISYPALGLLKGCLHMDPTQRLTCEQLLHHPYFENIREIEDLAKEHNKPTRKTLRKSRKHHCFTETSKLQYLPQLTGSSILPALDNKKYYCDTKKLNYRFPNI
structure (smiles),measurement,setting,value
COc1ccc(N(C(=O)Oc2c(C)cccc2C)c2ccnc(Nc3ccc(N4CCN(C)CC4)cc3)n2)c(OC)c1,"kinase still bound, per cent of control",NLK (human),3.9%
same,"kinase still bound, per cent of control",NEK3 (human),100%
same,"kinase still bound, per cent of control",STK11 (human),60%
same,"kinase still bound, per cent of control",BRSK1 (human),68%
same,"kinase still bound, per cent of control",RPS6KA2 KD2 (human),78%
same,"kinase still bound, per cent of control",PIM2 (human),100%
same,"kinase still bound, per cent of control",DYRK2 (human),80%
same,"kinase still bound, per cent of control",CSNK1G2 (human),33%
same,"kinase still bound, per cent of control",[1],0.25%
same,"kinase still bound, per cent of control",STK17A (human),100%
same,"kinase still bound, per cent of control",RIPK4 (human),92%
same,"kinase still bound, per cent of control",RPS6KA6 KD2 (human),67%
same,"kinase still bound, per cent of control",TAOK3 (human),4%
same,"kinase still bound, per cent of control",CSNK1E (human),23%
same,"kinase still bound, per cent of control",EPHA1 (human),0%
same,"kinase still bound, per cent of control",PDGFRB (human),0%
same,"kinase still bound, per cent of control",ADCK4 (human),20%
same,"kinase still bound, per cent of control",ZAP70 (human),79%
same,"kinase still bound, per cent of control",CDKL1 (human),100%
same,"kinase still bound, per cent of control",NEK2 (human),100%
same,"kinase still bound, per cent of control",SBK1 (human),100%
same,"kinase still bound, per cent of control",CRK2 (P.falciparum),100%
same,"kinase still bound, per cent of control",SRPK3 (human),11%
same,"kinase still bound, per cent of control",IRAK4 (human),100%
same,"kinase still bound, per cent of control",MAP3K9 (human),0.6%
same,"kinase still bound, per cent of control",ULK2 (human),38%
same,"kinase still bound, per cent of control",BRAF (human),88%
same,"kinase still bound, per cent of control",AKT2 (human),100%
same,"kinase still bound, per cent of control",PIK3CG (human),100%
same,"kinase still bound, per cent of control",EPHB1 (human),0%
same,"kinase still bound, per cent of control",EPHA7 (human),26%
same,"kinase still bound, per cent of control",PRKG1 (human),100%
same,"kinase still bound, per cent of control",CDK8 (human),100%
same,"kinase still bound, per cent of control",PIK3CA (human),100%
same,"kinase still bound, per cent of control",PIP5K1C (human),96%
same,"kinase still bound, per cent of control",RET (human),0.1%
same,"kinase still bound, per cent of control",MATK (human),67%
same,"kinase still bound, per cent of control",TESK1 (human),0%
same,"kinase still bound, per cent of control",SIK1 (human),0.3%
same,"kinase still bound, per cent of control",CAMK2A (human),84%
CCN1CCN(C(=O)Cc2ccc(Nc3ncc(F)c(Nc4ccc(C(=O)Nc5ccccc5Cl)cc4)n3)cc2)CC1,"kinase still bound, per cent of control",NLK (human),98%
same,"kinase still bound, per cent of control",NEK3 (human),60%
same,"kinase still bound, per cent of control",STK11 (human),12%
same,"kinase still bound, per cent of control",BRSK1 (human),88%
same,"kinase still bound, per cent of control",RPS6KA2 KD2 (human),57%
same,"kinase still bound, per cent of control",PIM2 (human),100%
same,"kinase still bound, per cent of control",DYRK2 (human),18%
same,"kinase still bound, per cent of control",CSNK1G2 (human),58%
same,"kinase still bound, per cent of control",[1],3.7%
same,"kinase still bound, per cent of control",STK17A (human),2.6%
same,"kinase still bound, per cent of control",RIPK4 (human),31%
same,"kinase still bound, per cent of control",RPS6KA6 KD2 (human),62%
same,"kinase still bound, per cent of control",TAOK3 (human),69%
same,"kinase still bound, per cent of control",CSNK1E (human),100%
same,"kinase still bound, per cent of control",EPHA1 (human),27%
same,"kinase still bound, per cent of control",PDGFRB (human),0.15%
same,"kinase still bound, per cent of control",ADCK4 (human),0.45%
same,"kinase still bound, per cent of control",ZAP70 (human),100%
same,"kinase still bound, per cent of control",CDKL1 (human),41%
same,"kinase still bound, per cent of control",NEK2 (human),87%
same,"kinase still bound, per cent of control",SBK1 (human),75%
same,"kinase still bound, per cent of control",CRK2 (P.falciparum),100%
same,"kinase still bound, per cent of control",SRPK3 (human),7.8%
same,"kinase still bound, per cent of control",IRAK4 (human),100%
same,"kinase still bound, per cent of control",MAP3K9 (human),17%
same,"kinase still bound, per cent of control",ULK2 (human),77%
same,"kinase still bound, per cent of control",BRAF (human),70%
same,"kinase still bound, per cent of control",AKT2 (human),95%
same,"kinase still bound, per cent of control",PIK3CG (human),65%
same,"kinase still bound, per cent of control",EPHB1 (human),66%
same,"kinase still bound, per cent of control",EPHA7 (human),55%
same,"kinase still bound, per cent of control",PRKG1 (human),100%
same,"kinase still bound, per cent of control",CDK8 (human),46%
same,"kinase still bound, per cent of control",PIK3CA (human),83%
same,"kinase still bound, per cent of control",PIP5K1C (human),77%
same,"kinase still bound, per cent of control",RET (human),1.8%
same,"kinase still bound, per cent of control",MATK (human),100%
same,"kinase still bound, per cent of control",TESK1 (human),44%
same,"kinase still bound, per cent of control",SIK1 (human),28%
same,"kinase still bound, per cent of control",CAMK2A (human),68%
